From US5191079A, “Quinolinecarboxylic acid derivatives” (priority 1990, dated 1993) come the findings set out here.

In series [1] the test system is bone marrow. In words: Micronucleus test, Experiment 8. Type of series: in vivo, ICR male mice. Conditions: oral 300, 1000, 3000 mg/kg, mouse bone marrow, 24 or 48 hours. Here is the method: The compound (B) or (E) of the present invention was suspended in 1% aqueous gum arabic. The suspension was orally administered to ICR male mice (7-8 weeks age, weighing 30 to 39 g, 5 mice in each group) at a rate of 3000, 1000 or 300 mg/kg body weight of the test compound (B) or (E). After 24 hours or 48 hours, these mice were killed and the bone marrow was collected and observed the presence of micronuclei.

The test system of series [2] is Staphylococcus epidermidis IAM 1296. In words: MIC, Experiment 1. Type of series: cell-based. The conditions noted are these: IAM1296, S. epidermidis IAM 1296, Gram +, read-out: Min. inhib. concentr. (MIC). Here is the method:
The compounds of the present invention ([…] and Q) were each dissolved in dimethylsulfoxide to prepare a solution of 5000 μg/ml in concentration. The compounds of the present invention (I, J and K) and the known compound (Y) were each dissolved in sterilized distilled water to prepare a solution of 5000 μg/ml in concentration. […] The test was carried out by a method as appointed by Japan Society of Chemotherapy [cf. Chemotherapy, 29, 76-79 (1981), TOKYO]. As to Streptococcus pneumoniae and Streptococcus pyogenes, Brain heart infusion broth (manufactured by DIFCO) was used as the medium for the preculture thereof, and a heart infusion agar medium containing 5% defibrinated horse blood (manufactured by Nissui Seiyaku K. K., Japan) was used as the medium for the measurement of minimum inhibitory concentration (MIC). As to other microorganisms, a sensitivity test broth (manufactured by Nissui Seiyaku K. K.) was used as the medium for the preculture thereof, and a sensitivity test agar medium (manufactured by Nissui Seiyaku K. K.) was used as the medium for the measurement of MIC.

Series [3] relates to clinically isolated Enterococcus faecalis. Briefly: In vitro antibacterial activity against clinical isolates, Experiment 2. Conditions: for MIC50: 50% of strains, read-out: MIC50. Type of series: cell-based. In short, it runs like this: (§1)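 Agar-based MIC determination used clinical strains isolated between late 1988 and mid-1989, precultured in sensitivity test broth; compound standard solutions (stock) were 1000 μg/ml in sterile distilled water.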

Series [4] concerns clinically isolated Enterococcus faecium. The series is described as above. It is filed as cell-based. In short, it runs like this:
as §1

The subject of series [5] is clinically isolated Staphylococcus aureus. Described as above. Type of series: cell-based. Conditions: for MIC50: 50% of strains, read-out: MIC50. In short, it runs like this:
as §1

The subject of series [6] is clinically isolated Staphylococcus epidermidis. Described as above. Type of series: cell-based. The conditions noted are these: Staphylococcus epidermidis, 25 clinical strains S. epidermidis; for MIC50: 50% of strains, read-out: MIC50; for MIC90: 90% of strains, read-out: MIC90. In short, it runs like this: as §1
A short description of series [7]: Acute toxicity, Experiment 6. Type of series: in vivo, F344/DuCrj male and female rats. Conditions: oral, 1000 and 2000 mg/kg, one week. Here is the method: 9,1-(Methylimino)methano-7-fluoro-8-(2-methoxymethylmorpholino)-5-oxo-5H-thiazolo[3,2-a]quinoline-4-carboxylic acid (compound of Example 20) [the compound (E) of the present invention] was suspended in 1% aqueous gum arabic to prepare a suspension in concentration of 100 mg/ml. The suspension was orally administered to F344/DuCrj male and female rats (5 weeks age, weighing 110 to 115 g in male, 91 to 95 g in female, 3 rats in each group), which had been fasted for 5 hours, at a rate of 1000 and 2000 mg/kg body weight of the test compound (E).

For series [8], the system named is Staphylococcus aureus IID 803. In words: Effect on treatment of general infectious disease (systemic infection in mice), Experiment 3. It is filed as in vivo, Staphylococcus aureus; ddY male mice. As to the method:
Staphylococcus aureus IID 803
The test microorganism was subjected to standing culture in Brain heart infusion broth (manufactured by DIFCO) at 37° C. for 16 to 18 hours. The culture was then diluted with PBS (Dulbecco's phosphate buffered saline) to adjust the concentration of bacteria to 4×10^7 -8×10^7 CFU/ml. The mixture was mixed with an equivalent amount of 10% (w/v) Mucin (BACTO MUCIN BACTERIOLOGICAL, manufactured by Difco Co.) to prepare a bacterial suspension. The thus prepared bacterial suspension (0.5 ml each) was intraperitoneally inoculated to ddY male mice (5 weeks age, weighing 24-27 g, 5 mice in each group), to infect the animals, by which systemic infectious model was prepared.
The mice were daily observed for one week, and from the survival number of mice after one week, the 50% effective dose (ED50) was calculated by Weil method. This test was repeated several times and the average of ED50 was calculated.

Series [9] is described as follows: Acute toxicity, Experiment 5. Type of series: in vivo. The conditions noted are these: oral, 2000 mg/kg, one week. As to the method: The compound (A) or (B) of the present invention was suspended in distilled water to prepare a suspension in concentration of 200 mg/ml and the compound (C) was suspended in distilled water to prepare a suspension in concentration of 100 mg/ml. The suspension was orally administered to ddY male mice (5 weeks age, weighing 19 to 24 g, 5 mice in each group), which had been fasted for 18 hours, at a rate of 2000 mg/kg body weight of the test compound.

In series [10] the test system is bone marrow. Briefly: Micronucleus test, Experiment 7. The conditions noted are these: oral 100 to 3000 mg/kg, mouse bone marrow, 24 hours. Type of series: in vivo, ICR male mice. As to the method:
9,1-(Methylimino)methano-7-fluoro-8-(2-fluoromethylmorpholino)-5-oxo-5H-thiazolo[3,2-a]quinoline-4-carboxylic acid (compound of Example 3) [the compound (C) of the present invention] was suspended in sterilized distilled water. The suspension was orally administered to ICR male mice (8 weeks age, weighing 30 to 36 g, 3 mice in each group) at a rate of 3000, 1000, 300 or 100 mg/kg body weight of the test compound (C). After 24 hours, these mice were killed and the bone marrow was collected and observed the presence of micronuclei.

Setting [11] is: 25 clinical strains E. faecalis.
Where [12] appears, read: 25 clinical strains S. aureus incl. 16 methicillin resistant.

SMILES strings stand for the structures. ≈ marks a conversion by molar mass, not a printed value. Like-named read-outs stand apart in the source and are kept apart here.

For orientation: MIC means the lowest concentration that inhibits growth of the organism. The MIC90 is the lowest concentration that inhibits either 90% of growth or 90% of the strains tested, depending on the study. A word on the MIC50: it is an inhibitory concentration at the 50% level, which refers to growth in some studies and to a panel of isolates in others. For the compound `COCC1CN(c2c(F)cc3c(=O)c(C(=O)O)c4scc5n4c3c2N(C)C5)CCO1` (centres unmarked) [Compound (E), 9,1-(Methylimino)methano-7-fluoro-8-(2-methoxymethylmorpholino)-5-oxo-5H-thiazolo[3,2-a]quinoline-4-carboxylic acid], the micronucleus inducing activity entry in [1] is “no nucleus inducing activity”. Also, the MIC is 0.05 µg/mL (≈ 0.115 µM) in [2]; 0.1 to 6.25 µg/mL (≈ 0.231 to 14.4 µM) in [3] (setting [11]); 0.1 to 12.5 µg/mL (≈ 0.231 to 28.8 µM) in series [4] (25 clinical strains E. faecium); 0.006 to 0.78 µg/mL (≈ 0.0138 to 1.8 µM) in series [5] (setting [12]); 0.006 to 0.39 µg/mL (≈ 0.0138 to 0.9 µM) in series [6]. Further, the MIC90 worked out at 6.25 µg/mL (≈ 14.4 µM) in series [3], 6.25 µg/mL (≈ 14.4 µM) in series [4], 0.78 µg/mL (≈ 1.8 µM) in [5] and 0.39 µg/mL (≈ 0.9 µM) in series [6]. The MIC50 was 0.2 µg/mL (≈ 0.461 µM) in series [3] (setting [11]), 3.13 µg/mL (≈ 7.22 µM) in series [4], 0.013 µg/mL (≈ 0.03 µM) in series [5] (setting [12]) and 0.05 µg/mL (≈ 0.115 µM) in series [6]. The death of rats entry in [7] is listed as “no death of rats was observed”.

Broadly, the ED50 is the dose at which the effect has come halfway, by size or by number of responders. For the compound `CN1Cc2csc3c(C(=O)O)c(=O)c4cc(F)c(N5CCOC(CF)C5)c1c4n23` (centres unmarked) [Compound (C), 9,1-(Methylimino)methano-7-fluoro-8-(2-fluoromethylmorpholino)-5-oxo-5H-thiazolo[3,2-a]quinoline-4-carboxylic acid], in series [8] (Experiment 3, in words), the “protective effects against infection” value is “excellent protective effects against infection”. For the same compound, the ED50 in series [8] (Staphylococcus aureus, IID803, 168 h, oral, 1 h after i.p. infection, mice, survival after one week, average of several tests, read-out: 50% effective dose (ED50)) came to 1.9 mg/kg. Besides, the MIC in series [2] is 0.025 µg/mL (≈ 0.0593 µM); in series [3] (setting [11]), 0.05 to 3.13 µg/mL (≈ 0.119 to 7.43 µM); in series [4] (25 clinical strains E. faecium), 0.05 to 6.25 µg/mL (≈ 0.119 to 14.8 µM); in [5] (setting [12]), 0.006 to 0.2 µg/mL (≈ 0.0142 to 0.475 µM); in [6], 0.006 to 0.39 µg/mL (≈ 0.0142 to 0.925 µM). Also, in [9], the death of mice entry is listed as “no death of mice was observed”. The MIC50 in series [3] (setting [11]) turned out to be 0.1 µg/mL (≈ 0.237 µM); in series [4] (25 clinical strains E. faecium, 50% of strains, read-out: MIC50) it was 0.78 µg/mL (≈ 1.85 µM); in [5] (setting [12]) it was 0.013 µg/mL (≈ 0.0308 µM); in [6], 0.013 µg/mL (≈ 0.0308 µM). The MIC90 in series [3] (25 clinical strains E. faecalis, 90% of strains, read-out: MIC90) stood at 3.13 µg/mL (≈ 7.43 µM); in series [4] (25 clinical strains E. faecium, 90% of strains, read-out: MIC90), 3.13 µg/mL (≈ 7.43 µM); in series [5] (25 clinical strains S. aureus incl. 16 methicillin resistant, 90% of strains, read-out: MIC90), 0.2 µg/mL (≈ 0.475 µM); in [6], 0.39 µg/mL (≈ 0.925 µM). Further, the micronucleus inducing activity entry in [10] is on record as “no nucleus inducing activity”.
